Assay results from patent publication US20080194482A1, “Selective Apac2 Receptor Peptide Agonists” (priority 2005, published 2008).
Like-named read-outs stand apart in the source and are kept apart here. Square brackets hold non-standard residues; d marks the D form. Ends that are not written are not given here. Peptide text beside a SMILES is read from it. * marks the point of attachment. hArg = N=C(N)NCCCC[C@H](N)C(=O)O; Orn = NCCC[C@H](N)C(=O)O; Hexanoyl = CCCCCC(=O)*; Aib = CC(C)(N)C(=O)O

T1: human PAC1 (Homo sapiens, UniProt P41586)
T1 construct: expressed in transfected cells
T1 sequence (P41586 21-468): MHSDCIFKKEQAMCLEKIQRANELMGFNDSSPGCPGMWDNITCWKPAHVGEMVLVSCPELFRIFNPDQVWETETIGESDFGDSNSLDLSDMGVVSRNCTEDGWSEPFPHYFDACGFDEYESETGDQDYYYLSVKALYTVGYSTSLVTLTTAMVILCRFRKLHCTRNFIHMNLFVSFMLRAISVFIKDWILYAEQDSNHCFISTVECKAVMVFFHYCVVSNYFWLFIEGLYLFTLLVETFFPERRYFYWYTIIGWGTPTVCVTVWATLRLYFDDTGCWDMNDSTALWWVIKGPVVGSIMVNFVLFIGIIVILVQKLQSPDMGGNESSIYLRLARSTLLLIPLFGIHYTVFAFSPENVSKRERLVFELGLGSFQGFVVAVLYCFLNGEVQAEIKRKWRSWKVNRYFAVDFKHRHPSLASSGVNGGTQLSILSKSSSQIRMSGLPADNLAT

T2: human VPAC1 (Homo sapiens, UniProt P32241)
T2 construct: expressed in transfected cells
T2 sequence (P32241 31-457): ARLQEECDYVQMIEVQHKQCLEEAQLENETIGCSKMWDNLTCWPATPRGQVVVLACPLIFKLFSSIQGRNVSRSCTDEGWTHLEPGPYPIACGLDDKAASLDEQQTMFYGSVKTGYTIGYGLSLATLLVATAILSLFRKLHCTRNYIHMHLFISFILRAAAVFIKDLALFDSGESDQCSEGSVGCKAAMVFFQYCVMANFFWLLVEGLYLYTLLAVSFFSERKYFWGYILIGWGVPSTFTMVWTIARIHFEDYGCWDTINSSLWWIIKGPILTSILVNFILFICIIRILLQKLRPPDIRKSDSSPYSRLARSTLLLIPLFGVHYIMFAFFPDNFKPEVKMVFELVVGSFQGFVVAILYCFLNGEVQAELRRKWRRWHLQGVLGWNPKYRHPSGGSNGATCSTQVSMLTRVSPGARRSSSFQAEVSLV

T3: human VPAC2 receptor (human, UniProt P41587 24-438)
T3 construct: whole, on cells; Stably expressed in a CHO-S cell line
T3 sequence (looked up): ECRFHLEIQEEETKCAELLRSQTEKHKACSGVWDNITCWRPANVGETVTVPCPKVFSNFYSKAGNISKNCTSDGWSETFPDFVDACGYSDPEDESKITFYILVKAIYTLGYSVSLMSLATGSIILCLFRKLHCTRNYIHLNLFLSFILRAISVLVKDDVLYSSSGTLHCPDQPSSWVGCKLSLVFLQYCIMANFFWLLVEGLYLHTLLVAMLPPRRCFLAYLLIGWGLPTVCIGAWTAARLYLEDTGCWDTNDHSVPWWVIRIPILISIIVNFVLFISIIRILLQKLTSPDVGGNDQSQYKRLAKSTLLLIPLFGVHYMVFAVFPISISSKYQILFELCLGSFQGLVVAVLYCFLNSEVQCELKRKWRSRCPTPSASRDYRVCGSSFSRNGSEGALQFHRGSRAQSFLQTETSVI

T4: rat VPAC1 receptor (rat, UniProt P30083 31-459)
T4 sequence (looked up): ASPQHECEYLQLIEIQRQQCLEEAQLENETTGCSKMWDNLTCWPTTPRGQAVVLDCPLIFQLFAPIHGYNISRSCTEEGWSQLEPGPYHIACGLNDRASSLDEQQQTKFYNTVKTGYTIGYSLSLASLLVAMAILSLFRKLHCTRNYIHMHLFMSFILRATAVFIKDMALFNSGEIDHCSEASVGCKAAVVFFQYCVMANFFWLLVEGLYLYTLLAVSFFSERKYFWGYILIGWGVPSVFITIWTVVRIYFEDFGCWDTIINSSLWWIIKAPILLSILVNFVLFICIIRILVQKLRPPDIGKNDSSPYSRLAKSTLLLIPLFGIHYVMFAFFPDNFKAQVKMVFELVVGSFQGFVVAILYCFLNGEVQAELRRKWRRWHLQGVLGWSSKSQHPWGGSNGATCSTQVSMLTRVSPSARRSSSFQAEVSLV

T5: rat VPAC2 receptor (rat, UniProt P35000 23-437)
T5 sequence (looked up): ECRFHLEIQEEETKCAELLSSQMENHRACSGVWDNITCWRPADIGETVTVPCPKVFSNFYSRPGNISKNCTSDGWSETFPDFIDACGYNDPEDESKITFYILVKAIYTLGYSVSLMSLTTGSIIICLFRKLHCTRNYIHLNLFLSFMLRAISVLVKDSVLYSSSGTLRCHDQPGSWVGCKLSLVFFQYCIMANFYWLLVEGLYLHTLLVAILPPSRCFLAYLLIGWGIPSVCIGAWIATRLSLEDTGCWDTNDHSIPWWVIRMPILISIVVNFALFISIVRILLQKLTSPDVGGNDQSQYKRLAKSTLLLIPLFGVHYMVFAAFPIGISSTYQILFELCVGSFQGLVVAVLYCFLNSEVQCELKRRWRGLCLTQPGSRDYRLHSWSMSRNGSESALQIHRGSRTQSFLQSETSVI


Key:
[1] = Rat serum stability (activity remaining, CHO-VPAC2 DiscoveRx read-out); format: in vitro ADME
Experimental: The rat serum is stored at 4° C. until use and is used within two weeks. […] The aliquot is stored with aprotinin at 4° C. The aliquot is stored without aprotinin at 37° C. The aliquots are incubated overnight. […] The plate(s) are washed with cells twice in incubation buffer. The plates are allowed to hold 50 μL incubation media per well for 15 minutes. 50 μL solution per well is transferred to the cells from the plate prepared with 11 serial 5× dilutions of peptide for the 4° C. and 37° C. aliquot for each peptide studied, using the maximal concentrations that are indicated by the primary screen, in duplicate. This step dilutes the peptide concentration by a factor of two. The cells are incubated at room temperature for 30 minutes. […] The cells are incubated on the shaker (300 rpm) for 1 hour. Normal procedure with the DiscoveRx kit is followed. cAMP standards are included in column 12. EC50 values are determined from the cAMP assay data.

human PAC1 = biological target: T1, human PAC1; experiment: Filter binding assay, 125I-labeled PACAP-27 tracer, PAC1 membranes; conditions: read-out: Human PAC1 Receptor Binding (IC50; nM)
human VPAC1 = biological target: T2, human VPAC1; experiment: Filter binding assay, 125I-labeled VIP tracer, VPAC1 membranes; conditions: read-out: Human VPAC1 Receptor Binding (IC50; nM)
Experimental: For this assay, the solutions and equipment include:
Presoak solution: 0.5% Polyethyleneamine in Aqua dest
Buffer for flushing filter plates: 25 mM HEPES pH 7.4
Blocking buffer: 25 mM HEPES pH 7.4; 0.2% protease free BSA
Assay buffer: 25 mM HEPES pH 7.4; 0.5% protease free BSA
Dilution and assay plate: PS-Microplate, U form
Filtration Plate: Multiscreen FB Opaque Plate; 1.0 μM Type B Glasfiber filter
In order to prepare the filter plates, the presoak solution is aspirated by vacuum filtration. The plates are flushed twice with 200 μL flush buffer. 200 μL blocking buffer is added to the filter plate. The filter plate is then incubated with 200 μL presoak solution for 1 hour at room temperature.
The assay plate is filled with 25 μL assay buffer, 25 μL membranes (2.5 μg) suspended in assay buffer, 25 μL compound (agonist) in assay buffer, and 25 μL tracer (about 40000 cpm) in assay buffer. The filled plate is incubated for 1 hour with shaking.
(§1) The transfer from assay plate to filter plate is conducted. The blocking buffer is aspirated by vacuum filtration and washed two times with flush buffer. 90 μL is transferred from the assay plate to the filter plate. The 90 μL transferred from assay plate is aspirated and washed three times with 200 μL flush buffer. The plastic support is removed. It is dried for 1 hour at 60° C. 30 μL Microscint is added. The count is performed.

human VPAC2 receptor [2] = biological target: T3, human VPAC2 receptor; experiment: filter binding, human VPAC2 membranes, competition with 125I-VIP;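 also: assay plate incubated 1 h with shaking, then filtered, with filter-retained counts measured after adding scintillant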
Experimental: The filled plate is incubated for 1 hour with shaking.
as §1

human VPAC2 receptor [3] = biological target: T3, human VPAC2 receptor; experiment: cell-based or functional assay
rat VPAC1 receptor = biological target: T4, rat VPAC1 receptor; experiment: cell-based or functional assay
rat VPAC2 receptor = biological target: T5, rat VPAC2 receptor; experiment: cell-based or functional assay

| Molecule | Rat Serum Stability (estimated purity in % after overnight incub.) [1] [%] | IC50 (human PAC1) [nM] | IC50 (human VPAC1) [nM] | Rat Serum Stability (estimated purity in % after overnight incub.) ([1]; 10 μM peptide in rat serum, overnight at 37° C. vs 4° C. with aprotinin, estimated by EC50, 4C/EC50, 37C) [%] | IC50 (human VPAC2 receptor [2]) [nM] | Human VPAC2 Receptor: Alpha Screen (EC50; nM), cAMP generation (human VPAC2 receptor [3]) [nM] | Rat VPAC1 Receptor: DiscoveRx (EC50; nM), cAMP generation (rat VPAC1 receptor) [nM] | Rat VPAC2 Receptor: DiscoveRx (EC50; nM), cAMP generation (rat VPAC2 receptor) [nM] |
| --- | --- | --- | --- | --- | --- | --- | --- | --- |
| CCCCCC(=O)N[C@@H](Cc1c[nH]cn1)C(=O)N[C@@H](CO)C(=O)N[C@@H](CC(=O)O)C(=O)N[C@@H](C)C(=O)N[C@H](C(=O)N[C@@H](Cc1ccccc1)C(=O)N[C@H](C(=O)N[C@@H](CC(=O)O)C(=O)N[C@@H](CC(N)=O)C(=O)N[C@@H](Cc1ccc(OC)cc1)C(=O)N[C@H](C(=O)N[C@@H](CCCNC(=N)N)C(=O)N[C@@H](CC(C)C)C(=O)N[C@@H](CCCNC(=N)N)C(=O)NC(C)(C)C(=O)N[C@@H](CCC(N)=O)C(=O)N[C@H](C(=O)N[C@@H](C)C(=O)N[C@@H](C)C(=O)NC(C)(C)C(=O)N[C@@H](CCCCN)C(=O)N[C@@H](Cc1ccc(O)cc1)C(=O)N[C@@H](CC(C)C)C(=O)N[C@@H](CCC(N)=O)C(=O)N[C@@H](CO)C(=O)N[C@H](C(=O)N[C@@H](CCCCN)C(=O)N[C@@H](CC(N)=O)C(=O)N[C@@H](CCCCN)C(=O)N[C@@H](CCCNC(=N)N)C(=O)N[C@@H](Cc1ccc(O)cc1)C(=O)NCC(=O)NCC(=O)N1CCC[C@H]1C(=O)N[C@@H](CO)C(=O)N[C@@H](CO)C(=O)NCC(=O)N[C@@H](C)C(=O)N1CCC[C@H]1C(=O)N1CCC[C@H]1C(=O)N1CCC[C@H]1C(=O)N[C@@H](CO)C(=O)O)[C@@H](C)CC)C(C)C)[C@@H](C)O)[C@@H](C)O)C(C)C [Agonist P358] | 13.43 |  |  |  |  |  |  |  |
| CCCCCC(=O)N[C@@H](Cc1c[nH]cn1)C(=O)N[C@@H](CO)C(=O)N[C@@H](CCC(=O)O)C(=O)N[C@@H](C)C(=O)N[C@H](C(=O)N[C@@H](Cc1ccccc1)C(=O)N[C@H](C(=O)N[C@@H](CCC(=O)O)C(=O)N[C@@H](CC(N)=O)C(=O)N[C@@H](Cc1ccc(O)cc1)C(=O)N[C@H](C(=O)N[C@@H](CCCN)C(=O)N[C@@H](CC(C)C)C(=O)N[C@@H](CCCNC(=N)N)C(=O)NC(C)(C)C(=O)N[C@@H](CCC(N)=O)C(=O)N[C@H](C(=O)N[C@@H](C)C(=O)N[C@@H](C)C(=O)NC(C)(C)C(=O)N[C@@H](CCCCN)C(=O)N[C@@H](Cc1ccc(O)cc1)C(=O)N[C@@H](CC(C)C)C(=O)N[C@@H](CCC(N)=O)C(=O)N[C@@H](CO)C(=O)N[C@H](C(=O)N[C@@H](CCCN)C(=O)N[C@@H](CC(N)=O)C(=O)N[C@@H](CCCN)C(=O)NCC(=O)NCC(=O)N1CCC[C@H]1C(=O)N[C@@H](CO)C(=O)N[C@@H](CO)C(=O)NCC(=O)N[C@@H](C)C(=O)N1CCC[C@H]1C(=O)N1CCC[C@H]1C(=O)N1CCC[C@H]1C(=O)N[C@@H](CO)C(=O)O)[C@@H](C)CC)C(C)C)[C@@H](C)O)[C@@H](C)O)C(C)C [Agonist P362] (Hexanoyl-HSEAVFTENYT[Orn]LR[Aib]QVAA[Aib]KYLQSI[Orn]N[Orn]GGPSSGAPPPS-OH; C-terminus assumed) | 82.77 | > 25000 | > 3000 |  |  |  |  |  |
| Hexanoyl-HSDAVFTDNYT[hArg]LR[Aib]QVAA[Aib]KYLQSIKNKRYGGPSSGAPPPS [Agonist P343] |  | > 25000 | > 3000 | 34.46 |  |  |  |  |
| CCCCCC(=O)N[C@@H](Cc1c[nH]cn1)C(=O)N[C@@H](CO)C(=O)N[C@@H](CC(=O)O)C(=O)N[C@@H](C)C(=O)N[C@H](C(=O)N[C@@H](Cc1ccccc1)C(=O)N[C@H](C(=O)N[C@@H](CCC(=O)O)C(=O)N[C@@H](CCC(N)=O)C(=O)N[C@@H](Cc1ccc(OC)cc1)C(=O)N[C@H](C(=O)N[C@@H](CCCN)C(=O)N[C@@H](CC(C)C)C(=O)N[C@@H](CCCNC(=N)N)C(=O)NC(C)(C)C(=O)N[C@@H](CCC(N)=O)C(=O)N[C@@H](CC(C)C)C(=O)N[C@@H](C)C(=O)N[C@@H](C)C(=O)NC(C)(C)C(=O)N[C@@H](CCCN)C(=O)N[C@@H](Cc1ccc(OC)cc1)C(=O)N[C@@H](CC(C)C)C(=O)N[C@@H](CCC(N)=O)C(=O)N[C@@H](CO)C(=O)N[C@H](C(=O)N[C@@H](CCCN)C(=O)N[C@@H](CCCN)C(=O)NCC(=O)NCC(=O)N1CCC[C@H]1C(=O)N[C@@H](CO)C(=O)N[C@@H](CO)C(=O)NCC(=O)N[C@@H](C)C(=O)N1CCC[C@H]1C(=O)N1CCC[C@H]1C(=O)N1CCC[C@H]1C(=O)N[C@@H](CO)C(=O)O)[C@@H](C)CC)[C@@H](C)O)[C@@H](C)O)C(C)C [Agonist P418] (Hexanoyl-HSDAVFTEQY(Me)T[Orn]LR[Aib]QLAA[Aib][Orn]Y(Me)LQSI[Orn][Orn]GGPSSGAPPPS-OH; C-terminus assumed) | 99.96 | > 25000 | > 3000 |  |  |  |  |  |
| Hexanoyl-HSDAVFTDNYTRLLAKLALQKYLQSI[Orn]N[Orn]GGPSSGAPPPS [VPAC2 receptor peptide agonist P370] |  |  |  |  | 0.8 | 0.23 | 0.05 | 0.05 |
| HSDAVFTDQYTXLRXQLAAXXYLQSIXXGGPSSGAPPPS (N-terminal hexanoyl (C6); Tyr(OMe) at 10; Orn at 12, 21, 27 and 28; Aib at 15 and 20) [VPAC2 receptor peptide agonist P394] |  |  |  |  | 0.41 | 0.11 | 0.48 | 0.03 |
